Results published in patent publication US7888061B2, “Method of stabilising or reactivating a creatinine sensor with a divalent manganese ion” (Radiometer Medical ApS, priority 2005, dated 2011).
Read-outs that look alike come from different tables or passages of the source.

Experiments:
[1] = molecular target: T1, Creatinine Amidohydrolase (Creatininase) (Pseudomonas putida, UniProt P83772); conditions: cited from earlier work; for reactivation of the inactive apoenzyme: addition of 0.5 mM, zinc ions removed from creatininase
T1 sequence (P83772 1-260): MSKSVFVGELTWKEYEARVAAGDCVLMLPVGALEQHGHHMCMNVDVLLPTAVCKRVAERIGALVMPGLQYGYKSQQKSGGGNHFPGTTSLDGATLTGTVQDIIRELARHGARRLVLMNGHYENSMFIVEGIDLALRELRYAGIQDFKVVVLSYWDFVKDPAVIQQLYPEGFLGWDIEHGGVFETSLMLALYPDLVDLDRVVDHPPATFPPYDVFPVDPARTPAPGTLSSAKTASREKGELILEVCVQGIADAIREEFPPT

[2] = tested on: Creatinine Amidohydrolase; conditions: 1.0 mM solution; cited from earlier work
[3] = molecular target: heat-treated creatininase (Pseudomonas putida, UniProt P83772); conditions: enzyme assays
[4] = molecular target: urease (Canavalia ensiformis, UniProt P07374)
urease, sequence (P07374 whole entry, looked up): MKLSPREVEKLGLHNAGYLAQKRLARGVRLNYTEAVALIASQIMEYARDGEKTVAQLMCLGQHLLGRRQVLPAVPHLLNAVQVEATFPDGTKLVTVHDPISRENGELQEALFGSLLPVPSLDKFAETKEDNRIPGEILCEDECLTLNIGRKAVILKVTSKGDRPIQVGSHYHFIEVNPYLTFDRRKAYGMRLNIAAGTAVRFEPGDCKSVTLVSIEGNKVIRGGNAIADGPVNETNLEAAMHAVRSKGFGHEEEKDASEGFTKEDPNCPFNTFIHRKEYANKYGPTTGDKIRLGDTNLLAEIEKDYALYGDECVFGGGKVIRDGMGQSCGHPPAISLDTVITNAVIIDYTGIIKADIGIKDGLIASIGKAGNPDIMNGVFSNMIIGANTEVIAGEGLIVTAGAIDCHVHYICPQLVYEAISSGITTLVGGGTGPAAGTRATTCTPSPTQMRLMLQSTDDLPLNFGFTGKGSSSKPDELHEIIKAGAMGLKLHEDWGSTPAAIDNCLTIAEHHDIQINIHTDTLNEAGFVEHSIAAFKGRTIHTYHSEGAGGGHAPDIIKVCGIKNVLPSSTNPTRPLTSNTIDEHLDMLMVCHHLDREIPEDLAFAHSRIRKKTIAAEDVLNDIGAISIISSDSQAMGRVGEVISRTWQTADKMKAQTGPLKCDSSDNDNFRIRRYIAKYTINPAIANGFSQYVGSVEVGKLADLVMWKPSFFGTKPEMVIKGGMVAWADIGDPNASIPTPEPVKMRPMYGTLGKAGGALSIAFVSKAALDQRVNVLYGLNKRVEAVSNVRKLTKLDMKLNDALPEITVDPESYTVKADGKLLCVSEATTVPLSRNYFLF

[5] = molecular target: creatininase (Pseudomonas putida, UniProt P83772)
Procedure: The following examples are intended to illustrate the invention without limiting the invention. In all of the examples, creatininase from Pseudomonas putida was used, obtained from Roche Diagnostics, Mannheim, Germany.
The stability of the creatinine sensor was tested by observing the sensor responses to calibration solutions containing each of the substrates creatinine and creatine.
The calibration solutions were prepared by dissolving about 200 μM creatinine in the Radiometer Calibration Solution 1 S1720 and about 200 μM creatine in the Radiometer Calibration Solution 2 S1730. These solutions were repeatedly introduced into the apparatus one after the other and sensor responses were obtained.
It is convenient to depict the relation between the creatinine sensor response to creatinine relative to the creatinine sensor response to creatine by the following ratio: R=response to creatinine/response to creatine.
If R is constant, the creatininase activity is stable. A declining value for R indicates an overall loss of creatininase activity.
The same experiment as described above was conducted with five creatinine sensors having a significant initial excess of creatininase. In FIG. 4, R is depicted for this experiment.

[6] = molecular target: glucose oxidase (Aspergillus niger, UniProt P13006)
glucose oxidase, sequence (P13006 17-605, species assumed): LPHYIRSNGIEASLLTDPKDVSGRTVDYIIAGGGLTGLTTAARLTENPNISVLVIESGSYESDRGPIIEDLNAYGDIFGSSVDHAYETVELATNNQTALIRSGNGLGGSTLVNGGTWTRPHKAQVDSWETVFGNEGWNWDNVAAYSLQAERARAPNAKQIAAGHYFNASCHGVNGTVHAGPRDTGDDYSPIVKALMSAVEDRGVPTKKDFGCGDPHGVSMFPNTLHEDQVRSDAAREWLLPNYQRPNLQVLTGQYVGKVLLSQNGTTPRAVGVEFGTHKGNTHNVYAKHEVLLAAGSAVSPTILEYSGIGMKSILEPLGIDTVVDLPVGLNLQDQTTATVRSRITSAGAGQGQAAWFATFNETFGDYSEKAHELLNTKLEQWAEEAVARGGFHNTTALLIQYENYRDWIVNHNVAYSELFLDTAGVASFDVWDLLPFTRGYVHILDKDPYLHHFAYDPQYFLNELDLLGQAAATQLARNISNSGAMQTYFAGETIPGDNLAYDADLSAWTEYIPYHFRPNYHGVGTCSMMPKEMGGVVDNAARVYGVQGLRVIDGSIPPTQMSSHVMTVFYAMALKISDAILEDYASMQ

[7] = molecular target: lactate oxidase (Aerococcus viridans, UniProt Q44467)
lactate oxidase, sequence (Q44467 whole entry, species assumed): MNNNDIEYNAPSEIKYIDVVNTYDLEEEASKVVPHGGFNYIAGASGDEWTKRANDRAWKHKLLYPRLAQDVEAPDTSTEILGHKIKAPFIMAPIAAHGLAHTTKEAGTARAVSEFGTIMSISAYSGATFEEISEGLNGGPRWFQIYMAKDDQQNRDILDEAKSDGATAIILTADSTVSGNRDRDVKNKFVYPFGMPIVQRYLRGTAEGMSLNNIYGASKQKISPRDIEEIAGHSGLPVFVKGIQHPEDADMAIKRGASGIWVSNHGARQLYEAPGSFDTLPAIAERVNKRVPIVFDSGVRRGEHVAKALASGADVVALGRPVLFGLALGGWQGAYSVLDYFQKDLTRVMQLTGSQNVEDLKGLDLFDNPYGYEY

Row | Compound | reactivation of the inactive apoenzyme [1] | inhibition of the activity of creatininase ([1]; purified, heat-treated enzyme) | other results
1 | [Mg+2] [Mg] | reactivated | inhibit slightly | –
2 | [Cl][Mn][Cl] [MnCl2] | – | – | reactivation of metal ion depleted creatininase [2]: reactivated
3 | [Mn+2] [divalent manganese ion] | reactivated | inhibit slightly | effect on heat-treated creatininase [3]: favourable effect; deactivation of urease [4]: not to deactivate; R = response to creatinine/response to creatine (relative sensor response) ([5]; 2 μM in Rinse Solution for 5½ days after 2¾ days without, two sensors with nearly no initial excess of creatininase, FIG. 3): approximately 0.8; R = response to creatinine/response to creatine (relative sensor response) ([5]; 10 μM in Rinse Solutions after 18 days without (R had decreased to 0.9), five sensors with significant initial excess of creatininase, FIG. 4): approximately 1.3; activation of creatininase ([5]; concentrations of about 0.01 to about 150 μM, without adverse effect on the other enzymes of the dual sensor system): activate creatininase; time for which the sensor response level was maintained ([5]; continuous treatment at about 2 μM, FIG. 3): at least 5 days; time for which the sensor response level was maintained ([5]; continuous treatment at about 10 μM, FIG. 4): at least 5 days; deactivation of glucose oxidase [6]: not to deactivate; deactivation of lactate oxidase [7]: not to deactivate
4 | [Co+2] [Co] | reactivated | inhibit slightly | –
5 | [Ni+2] [Ni] | reactivated | inhibit slightly | –
6 | [Fe+2] [Fe] | reactivated | inhibit slightly | –
7 | [Ca+2] [Ca] | – | inhibit slightly | –
8 | O=C(O)CN(CCN(CC(=O)O)CC(=O)O)CC(=O)O [EDTA, ethylenediamine tetraacetic acid] | – | – | inhibition of the activity of creatininase [1]: only slight inhibition
9 | [Zn+2] [Zn] | reactivated | inhibit slightly | –
